A short description of the data set: Aqueous solubility of the salts determined by HPLC. In kind it is physicochemical. Conditions: for pH: pH of Table 2 for the aqueous solubility samples (water, 2 h at 20° C.); for solubility at 2 h: thermodynamic from solid, read-out: Solubility in H2O. The protocol:
To determine the aqueous solubility of the salts, suspensions of the salts were shaken 2 h at 20° C. and 400 rpm. Afterwards the mixtures were filtered (0.1 μm centrifuge filter) and the concentrations were determined by HPLC.

[1] abbreviates: suspension in water shaken 2 h at 20° C. and 400 rpm, filtered (0.1 μm), concentration by HPLC.

We go through nine compounds from patent US8507684B2, “1-cyclopropyl-8-methyl-7-[5-methyl-6-(methylamino)-3-pyridinyl]-4-oxo-1,4-dihydro-3-quinolinecarboxylic acid salts” (Ferrer Internacional S.A., priority 2010, dated 2013).

With `CNc1ncc(-c2ccc3c(=O)c(C(=O)O)cn(C4CC4)c3c2C)cc1C.O=C(O)C(O)C(O)C(=O)O` [L-Tartrate, 1-Cyclopropyl-8-methyl-7-[5-methyl-6-(methylamino)-3-pyridinyl]-4-oxo-1,4-dihydro-3-quinolinecarboxylic acid L-tartrate salt], the pH turned out to be 2.5. In addition, the solubility (commonly the concentration that dissolves in the medium under given conditions) at 2 h under setting [1] was 4600 µg/mL.
For `CNc1ncc(-c2ccc3c(=O)c(C(=O)O)cn(C4CC4)c3c2C)cc1C.O=C(O)CC(O)(CC(=O)O)C(=O)O` [Citrate, 1-Cyclopropyl-8-methyl-7-[5-methyl-6-(methylamino)-3-pyridinyl]-4-oxo-1,4-dihydro-3-quinolinecarboxylic acid citrate salt] the same measures were 2.7 and 5220 µg/mL.
As for `CNc1ncc(-c2ccc3c(=O)c(C(=O)O)cn(C4CC4)c3c2C)cc1C.Cl.O` [Hydrochloride monohydrate, 1-Cyclopropyl-8-methyl-7-[5-methyl-6-(methylamino)-3-pyridinyl]-4-oxo-1,4-dihydro-3-quinolinecarboxylic acid hydrochloride monohydrate salt], the pH is 2.8. In addition, the solubility at 2 h under setting [1] was 2000 µg/mL.
For the compound `CNc1ncc(-c2ccc3c(=O)c(C(=O)O)cn(C4CC4)c3c2C)cc1C.CS(=O)(=O)O` [Mesylate, 1-Cyclopropyl-8-methyl-7-[5-methyl-6-(methylamino)-3-pyridinyl]-4-oxo-1,4-dihydro-3-quinolinecarboxylic acid mesylate salt], the pH was found to be 2.4. Further, the solubility at 2 h under setting [1] stood at 113000 µg/mL.
For the compound “1-Cyclopropyl-8-methyl-7-[5-methyl-6-(methylamino)-3-pyridinyl]-4-oxo-1,4-dihydro-3-quinolinecarboxylic acid hemi-fumarate salt”, the pH was determined as 4.8. For the same compound, the “Solubility in H2O” value under setting [1] stood at 89.7 µg/mL.
Regarding `CNc1ncc(-c2ccc3c(=O)c(C(=O)[O-])cn(C4CC4)c3c2C)cc1C.[Na+]` [Sodium, 1-Cyclopropyl-8-methyl-7-[5-methyl-6-(methylamino)-3-pyridinyl]-4-oxo-1,4-dihydro-3-quinolinecarboxylic acid sodium salt], the pH stood at 9.0. Under setting [1], the solubility at 2 h was 159000 µg/mL.
For `CNc1ncc(-c2ccc3c(=O)c(C(=O)O)cn(C4CC4)c3c2C)cc1C.O=C(O)/C=C\C(=O)O` [Maleate, 1-Cyclopropyl-8-methyl-7-[5-methyl-6-(methylamino)-3-pyridinyl]-4-oxo-1,4-dihydro-3-quinolinecarboxylic acid maleate salt] the same measures were 5.3 and 149 µg/mL.
For `CNc1ncc(-c2ccc3c(=O)c(C(=O)[O-])cn(C4CC4)c3c2C)cc1C.[K+]` [Potassium, 1-Cyclopropyl-8-methyl-7-[5-methyl-6-(methylamino)-3-pyridinyl]-4-oxo-1,4-dihydro-3-quinolinecarboxylic acid potassium salt] the same measures were 9.8 and 109000 µg/mL.
In the case of `CNc1ncc(-c2ccc3c(=O)c(C(=O)O)cn(C4CC4)c3c2C)cc1C` [Free drug, 1-Cyclopropyl-8-methyl-7-[5-methyl-6-(methylamino)-3-pyridinyl]-4-oxo-1,4-dihydro-3-quinolinecarboxylic acid], the pH is 8.5. In addition, for the setting “general statement, no conditions given”, the “solubility in water (in words)” value is recorded as “low solubility in water”. Also, under setting [1], the solubility at 2 h was 19 µg/mL.
